# Results: PMC6301713, “Zincophorin – biosynthesis in Streptomyces griseus and antibiotic properties” (GMS Infectious Diseases, 2016)
# Like-named read-outs stand apart in the source and are kept apart here.
# What was measured:
# S. pneumoniae DSM14378 [1] = conditions: DSM14378, 18 h
# S. pneumoniae DSM20566 [2] = conditions: DSM20566, 18 h
# [3] = tested on: S. pneumoniae clinical isolate 9400; conditions: clinical isolate 9400, 18 h
# [4] = tested on: S. pneumoniae clinical isolate 8919; conditions: clinical isolate 8919, 18 h
# [5] = tested on: S. pneumoniae clinical isolate 6937
# S. pneumoniae D39 [6] = tested on: S. pneumoniae D39
# S. pneumoniae DSM14378 [7] = tested on: S. pneumoniae DSM14378
# [8] = tested on: S. pneumoniae clinical isolate 9400
# S. pneumoniae DSM20566 [9] = tested on: S. pneumoniae DSM20566
# [10] = tested on: S. pneumoniae clinical isolate 8828
# [11] = tested on: S. pneumoniae clinical isolate 6937; conditions: clinical isolate 6937, 18 h
# S. pneumoniae D39 [12] = conditions: D39, 18 h
# [13] = Cytotoxicity assay, crystal violet staining; format: cell-based, canine; conditions: dog
# Method: (§1) The cytotoxicity of zincophorin, methyl zincophorin, daptomycin (Chemos GmbH, Regenstauf, Germany), and imipenem (Sigma-Aldrich GmbH, Taufkirchen, Germany) was evaluated as described recently, [20]. Briefly, serial twofold compounds concentration were prepared in Eagle’s minimum essential medium supplemented with 2 mM L-glutamine or Dulbecco’s Modified Eagle Medium (Lonza Group Ltd., Basel, Switzerland) and added to three-day-old confluent human lung carcinoma cells (A549; Institute of Molecular Virology, University of Münster, Germany) and Madin-Darby canine kidney cell (MDCK; Friedrich-Loeffler Institute, Riems, Germany) monolayers grown in 96-well plates (Greiner bio-one GmbH, Frickenhausen, Germany), respectively. […] After dye elution and optical density measurement the 50% cytotoxic concentration (CC50) was calculated.
# [14] = tested on: S. pneumoniae clinical isolate 8919
# [15] = tested on: S. pneumoniae clinical isolate 8828; conditions: clinical isolate 8828, 18 h
# [16] = Cytotoxicity assay, crystal violet staining; format: cell-based, human; conditions: human
# Method: as §1
# [17] = tested on: S. pneumoniae clinical isolate 8828; test: microbe, parasite or virus in culture; conditions: Streptococcus pneumoniae, 18 h, read-out: MIC (8828)
# [18] = tested on: S. pneumoniae clinical isolate 9400; test: microbe, parasite or virus in culture; conditions: Streptococcus pneumoniae, 18 h, read-out: MIC (9400)
# S. pneumoniae DSM14378 [19] = test: microbe, parasite or virus in culture; conditions: Streptococcus pneumoniae, DSM14378, 18 h, read-out: MIC (DSM14378)
# S. pneumoniae DSM20566 [20] = test: microbe, parasite or virus in culture; conditions: Streptococcus pneumoniae, DSM20566, 18 h, read-out: MIC (DSM20566)
# S. pneumoniae D39 [21] = test: microbe, parasite or virus in culture; conditions: Streptococcus pneumoniae, D39, 18 h, read-out: MIC (D39)
# [22] = tested on: S. pneumoniae clinical isolate 6937; test: microbe, parasite or virus in culture; conditions: Streptococcus pneumoniae, 18 h, read-out: MIC (6937)
# [23] = tested on: S. pneumoniae clinical isolate 8919; test: microbe, parasite or virus in culture; conditions: Streptococcus pneumoniae, 18 h, read-out: MIC (8919)
# Streptococcus pneumoniae = test: Antimicrobial assays, all tested S. pneumoniae strains; conditions: pneumococci; maximum tested concentration 50 µM; data not shown
# [24] = tested on: Clostridium welchii (Clostridium perfringens); conditions: cited from earlier work
# [25] = tested on: Madin-Darby canine kidney cell (MDCK); test: Cytotoxicity assay, crystal violet staining; format: cell-based; conditions: MDCK cells
# Method: as §1
# [26] = tested on: human lung carcinoma cells (A549); test: Cytotoxicity assay, crystal violet staining; format: cell-based; conditions: A549 cells
# Method: as §1
# [27] = clinical isolate 6937, biofilm formation inhibited ≥90%, 24 h, TSB, mean with standard deviation
# [28] = reference strain D39, biofilm formation inhibited ≥90%, 24 h, TSB, mean with standard deviation
# [29] = reference strain DSM14378, biofilm formation inhibited ≥90%, 24 h, TSB, mean with standard deviation
# [30] = clinical isolate 9400, biofilm formation inhibited ≥90%, 24 h, TSB, mean with standard deviation
# [31] = reference strain DSM20566, biofilm formation inhibited ≥90%, 24 h, TSB, mean with standard deviation
# [32] = A549 lung carcinoma cells (confluent monolayers), A549 cells, 72 h, maximum tested 100 µM, mean with standard deviation, read-out: 50% cytotoxic concentration (CC50), A549
# [33] = MDCK cells (confluent monolayers), MDCK cells, 72 h, maximum tested 100 µM, mean with standard deviation, read-out: 50% cytotoxic concentration (CC50), MDCK
SMILES,MIC [17] [µM],MIC [18] [µM],MIC (S. pneumoniae DSM14378 [19]) [µM],MIC (S. pneumoniae DSM20566 [20]) [µM],MIC (S. pneumoniae D39 [21]) [µM],"MBIC (6937) [5, 27] [µM]",MBIC (D39) (S. pneumoniae D39 [6]; [28]) [µM],MBIC (DSM14378) (S. pneumoniae DSM14378 [7]; [29]) [µM],"MBIC (9400) [8, 30] [µM]",MBIC (DSM20566) (S. pneumoniae DSM20566 [9]; [31]) [µM],MIC [22] [µM],MIC [23] [µM],"CC50 at 72 h [16, 32] [µM]","CC50 at 72 h [13, 33] [µM]",further results
CCCCCCCCCC(=O)N[C@@H](Cc1c[nH]c2ccccc12)C(=O)N[C@H](CC(N)=O)C(=O)N[C@@H](CC(=O)O)C(=O)N[C@@H]1C(=O)NCC(=O)N[C@@H](CCCN)C(=O)N[C@@H](CC(=O)O)C(=O)N[C@H](C)C(=O)N[C@@H](CC(=O)O)C(=O)NCC(=O)N[C@H](CO)C(=O)N[C@@H]([C@H](C)CC(=O)O)C(=O)N[C@@H](CC(=O)c2ccccc2N)C(=O)O[C@@H]1C [daptomycin],–,–,–,–,–,–,–,–,–,–,–,–,–,–,"MIC (DSM14378) (S. pneumoniae DSM14378 [1]): 0.54 ± 0.18 µM; MIC (DSM20566) (S. pneumoniae DSM20566 [2]): 1.94 ± 0.91 µM; MIC (9400) [3]: 0.96 ± 0.56 µM; MIC (8919) [4]: 0.31 ± 0.08 µM; MBIC (6937) ([5]; clinical isolate 6937, 24 h): 1.66 ± 1.21 µM; MBIC (D39) (S. pneumoniae D39 [6]; D39, 24 h): 6.10 ± 0.79 µM; MBIC (DSM14378) (S. pneumoniae DSM14378 [7]; DSM14378, 24 h): 1.99 ± 1.38 µM; MBIC (9400) ([8]; clinical isolate 9400, 24 h): 2.28 ± 1.81 µM; MBIC (DSM20566) (S. pneumoniae DSM20566 [9]; DSM20566, 24 h): 1.92 ± 1.07 µM; MBIC (8828) ([10]; clinical isolate 8828, 24 h): 0.48 ± 0.21 µM; MIC (6937) [11]: 0.48 ± 0.18 µM; MIC (D39) (S. pneumoniae D39 [12]): 2.80 ± 0.11 µM; CC50 at 72 h [13]: > 100 µM; MBIC (8919) ([14]; clinical isolate 8919, 24 h): 0.49 ± 0.26 µM; MIC (8828) [15]: 0.86 ± 0.50 µM; CC50 at 72 h [16]: > 100 µM"
C[C@@H](O)[C@H]1C(=O)N2C(C(=O)O)=C(SCCN=CN)C[C@H]12 [imipenem],0.02,0.01 ± 0.01,0.02 ± 0.01,0.03 ± 0.01,0.02,0.22 ± 0.14,0.07 ± 0.03,0.19 ± 0.01,0.36 ± 0.02,0.06 ± 0.03,0.01,0.49 ± 0.17,> 100,–,–
CCC[C@@H](C)/C=C(\C)[C@H](O)[C@H](C)/C=C/CC[C@@H](O)[C@H](C)[C@H](O)[C@H](C)[C@H](O)[C@H](C)[C@H]1O[C@H]([C@H](C)C(=O)OC)CC[C@@H]1C [zincophorin methyl ester],–,–,–,–,–,–,–,–,–,–,–,–,> 100,> 100,antibacterial effect (highest concentration without effect) (Streptococcus pneumoniae): > 50 µM
CCCC(C)C=C(C)C(O)C(C)C=CCCC(O)C(C)C(O)C(C)C(O)C(C)C1OC(C(C)C(=O)O)CCC1C (stereo not drawn) [zincophorin],0.22 ± 0.04,0.14 ± 0.07,0.1 ± 0.05,0.18 ± 0.02,0.21 ± 0.11,0.46 ± 0.25,0.40 ± 0.24,0.13 ± 0.06,0.36 ± 0.01,0.17 ± 0.03,0.18,0.09 ± 0.01,1.02 ± 0.63,0.63 ± 0.27,"activity against Clostridium welchii [24]: particularly active; MBIC (8828) ([10]; clinical isolate 8828, biofilm formation inhibited ≥90%, 24 h, TSB, mean with standard deviation): 0.28 ± 0.06 µM; cytotoxic effects in words, MDCK [25]: strong cytotoxic effects; MBIC (8919) ([14]; clinical isolate 8919, biofilm formation inhibited ≥90%, 24 h, TSB, mean with standard deviation): 0.15 ± 0.01 µM; cytotoxic effects in words, A549 [26]: strong cytotoxic effects"
